Tests used:
Assay type in all cases: in vivo
Setaria viridis [1] = experiment: Post-emergence herbicidal effect; details: assessed visually after about 3 weeks vs untreated controls
Outline: (§1)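 Greenhouse weeds grown in sandy loam were sprayed at the one-leaf stage, 2–3 weeks after sowing, with WP or EC formulations in 600–800 L/ha water plus 0.2% wetting agent. Damage was scored visually after about 3 weeks as percent activity relative to untreated controls, where 100% means the plants died.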

Abutilon theophrasti [2] = experiment: Post-emergence herbicidal effect; details: assessed visually after about 3 weeks vs untreated controls
Outline: as §1

Viola tricolor [3] = experiment: Post-emergence herbicidal effect; details: assessed visually after about 3 weeks vs untreated controls
Outline: as §1

Amaranthus retroflexus [4] = experiment: Post-emergence herbicidal effect; details: assessed visually after about 3 weeks vs untreated controls
Outline: as §1

Veronica persica [5] = experiment: Post-emergence herbicidal effect; details: assessed visually after about 3 weeks vs untreated controls
Outline: as §1

Matricaria inodora [6] = experiment: Post-emergence herbicidal effect; details: assessed visually after about 3 weeks vs untreated controls
Outline: as §1

Alopecurus myosuroides = experiment: Pre-emergence herbicidal effect; details: scored visually after 3 weeks
Outline: (§2)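 Visual damage score in % after 3 weeks in the greenhouse, relative to untreated controls (0% like control, 100% plants dead). Compounds were sprayed pre-emergence onto covering soil over seeds sown in sandy loam, as WP or EC in water at 600 to 800 L/ha plus 0.2% wetting agent.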

Ipomoea purpurea [7] = experiment: Pre-emergence herbicidal effect; details: Dosage 320 g/ha, scored visually after 3 weeks
Outline: as §2

Setaria viridis [8] = experiment: Pre-emergence herbicidal effect; details: scored visually after 3 weeks
Outline: as §2

Lolium multiflorum [9] = experiment: Pre-emergence herbicidal effect; details: Dosage 320 g/ha, scored visually after 3 weeks
Outline: as §2

Echinochloa crus-galli [10] = experiment: Pre-emergence herbicidal effect; details: Dosage 320 g/ha, scored visually after 3 weeks
Outline: as §2

Polygonum convolvulus [11] = experiment: Pre-emergence herbicidal effect; details: scored visually after 3 weeks
Outline: as §2

Viola tricolor [12] = experiment: Pre-emergence herbicidal effect; details: scored visually after 3 weeks
Outline: as §2

Amaranthus retroflexus [13] = experiment: Pre-emergence herbicidal effect; details: scored visually after 3 weeks
Outline: as §2

Veronica persica [14] = experiment: Pre-emergence herbicidal effect; details: scored visually after 3 weeks
Outline: as §2

Matricaria inodora [15] = experiment: Pre-emergence herbicidal effect; details: scored visually after 3 weeks
Outline: as §2

Stellaria media [16] = experiment: Pre-emergence herbicidal effect; details: scored visually after 3 weeks
Outline: as §2

Abutilon theophrasti [17] = experiment: Pre-emergence herbicidal effect; details: Dosage 320 g/ha, scored visually after 3 weeks
Outline: as §2

Ipomoea purpurea [18] = experiment: Post-emergence herbicidal effect; details: assessed visually after about 3 weeks vs untreated controls
Outline: as §1

Lolium multiflorum [19] = experiment: Post-emergence herbicidal effect; details: 320 g/ha, assessed visually after about 3 weeks vs untreated controls
Outline: as §1

Echinochloa crus-galli [20] = experiment: Post-emergence herbicidal effect; details: 320 g/ha, assessed visually after about 3 weeks vs untreated controls
Outline: as §1

Polygonum convolvulus [21] = experiment: Post-emergence herbicidal effect; details: 320 g/ha, assessed visually after about 3 weeks vs untreated controls
Outline: as §1

Stellaria media [22] = experiment: Post-emergence herbicidal effect; details: 320 g/ha, assessed visually after about 3 weeks vs untreated controls
Outline: as §1

Avena fatua = experiment: Pre-emergence herbicidal effect; details: Dosage 320 g/ha, scored visually after 3 weeks
Outline: as §2

Row | SMILES | post-emergence efficacy VIOTR (Viola tricolor [3]; 80 g/ha) | post-emergence efficacy VIOTR (Viola tricolor [3]; 320 g/ha) | post-emergence efficacy AMARE (Amaranthus retroflexus [4]; 320 g/ha) | post-emergence efficacy VERPE (Veronica persica [5]; 320 g/ha) | post-emergence efficacy MATIN (Matricaria inodora [6]; 320 g/ha) | ALOMY pre-emergence efficacy (herbicidal activity) (Alopecurus myosuroides; Dosage 320 g/ha) | PHBPU pre-emergence efficacy (herbicidal activity) (Ipomoea purpurea [7]) | SETVI pre-emergence efficacy (herbicidal activity) (Setaria viridis [8]; Dosage 80 g/ha) | SETVI pre-emergence efficacy (herbicidal activity) (Setaria viridis [8]; Dosage 320 g/ha) | LOLMU pre-emergence efficacy (herbicidal activity) (Lolium multiflorum [9]) | POLCO pre-emergence efficacy (herbicidal activity) (Polygonum convolvulus [11]; Dosage 320 g/ha) | VIOTR pre-emergence efficacy (herbicidal activity) (Viola tricolor [12]; Dosage 80 g/ha) | VIOTR pre-emergence efficacy (herbicidal activity) (Viola tricolor [12]; Dosage 320 g/ha) | AMARE pre-emergence efficacy (herbicidal activity) (Amaranthus retroflexus [13]; Dosage 320 g/ha) | VERPE pre-emergence efficacy (herbicidal activity) (Veronica persica [14]; Dosage 80 g/ha) | VERPE pre-emergence efficacy (herbicidal activity) (Veronica persica [14]; Dosage 320 g/ha) | MATIN pre-emergence efficacy (herbicidal activity) (Matricaria inodora [15]; Dosage 80 g/ha) | MATIN pre-emergence efficacy (herbicidal activity) (Matricaria inodora [15]; Dosage 320 g/ha) | STEME pre-emergence efficacy (herbicidal activity) (Stellaria media [16]; Dosage 80 g/ha) | STEME pre-emergence efficacy (herbicidal activity) (Stellaria media [16]; Dosage 320 g/ha) | other results
1 | C/C(=N/OCc1ccccc1)c1cnc(NC2CCCc3sc(C)cc32)nc1N (racemic) [compound 291] | 80% | 80% | 80% | 60% | 80% | 90% | 100% | 90% | 100% | 60% | 70% | 90% | 100% | 100% | 100% | 100% | 100% | 100% | 100% | 100% | post-emergence efficacy SETVI (Setaria viridis [1]; 80 g/ha): 60%; post-emergence efficacy SETVI (Setaria viridis [1]; 320 g/ha): 80%; post-emergence efficacy ABUTH (Abutilon theophrasti [2]; 80 g/ha): 80%; post-emergence efficacy ABUTH (Abutilon theophrasti [2]; 320 g/ha): 90%; ALOMY pre-emergence efficacy (herbicidal activity) (Alopecurus myosuroides; Dosage 80 g/ha): 60%; ECHCG pre-emergence efficacy (herbicidal activity) (Echinochloa crus-galli [10]): 80%
2 | CCOC(=O)c1cnc(NC2CCCc3sc(C)cc32)nc1C (racemic) [compound 240] | – | – | – | – | – | – | 10% | 90% | 100% | 60% | 70% | 70% | 100% | 80% | 100% | 100% | 90% | 100% | 100% | 100% | ABUTH pre-emergence efficacy (herbicidal activity) (Abutilon theophrasti [17]): 70%; POLCO pre-emergence efficacy (herbicidal activity) (Polygonum convolvulus [11]; Dosage 80 g/ha): 70%
3 | CS(=O)(=O)c1cnc(NC2CCCc3sccc32)nc1N (racemic) [compound 23] | 80% | 100% | 80% | 90% | 100% | 80% | 100% | – | 100% | 100% | 100% | 100% | 100% | 100% | 100% | 100% | 100% | 100% | 100% | 100% | post-emergence efficacy PHBPU (Ipomoea purpurea [18]; 80 g/ha): 80%; post-emergence efficacy PHBPU (Ipomoea purpurea [18]; 320 g/ha): 80%; post-emergence efficacy LOLMU (Lolium multiflorum [19]): 80%; post-emergence efficacy ECHCG (Echinochloa crus-galli [20]): 80%; post-emergence efficacy POLCO (Polygonum convolvulus [21]): 80%; post-emergence efficacy AMARE (Amaranthus retroflexus [4]; 80 g/ha): 80%; post-emergence efficacy VERPE (Veronica persica [5]; 80 g/ha): 90%; post-emergence efficacy MATIN (Matricaria inodora [6]; 80 g/ha): 80%; post-emergence efficacy STEME (Stellaria media [22]): 90%; ECHCG pre-emergence efficacy (herbicidal activity) (Echinochloa crus-galli [10]): 100%; POLCO pre-emergence efficacy (herbicidal activity) (Polygonum convolvulus [11]; Dosage 80 g/ha): 100%; AVEFA pre-emergence efficacy (herbicidal activity) (Avena fatua): 90%; AMARE pre-emergence efficacy (herbicidal activity) (Amaranthus retroflexus [13]; Dosage 80 g/ha): 100%

Source: patent publication US10251395B2, “Substituted furano-/thienocycloalkylamino-2-pyrimidine derivatives and use thereof for controlling undesired plant growth” (Bayer CropScience Aktiengesellschaft, priority 2015, dated 2019)
